Assays:
cathepsin X [1] = target: T1, cathepsin X (Mus musculus, UniProt Q9WUU7); experiment: Probe labeling of RAW264.7 cell lysates, SDS-PAGE in-gel fluorescence; type: biochemical; set-up: protein lysates prepared from RAW264.7 cells; host or cells: RAW264.7
Protocol: ells were harvested by scraping, washed once with PBS, and resuspended in lysis buffer containing 50 mM citrate [pH 5.5], 0.5% CHAPS, 0.1% Triton X-100, and 4 mM DTT. Cells were incubated on ice for at least 10 minutes with intermittent vortexing followed by centrifugation ([…] at 4° C. or 5 minutes). Cleared supernatants were then transferred to a fresh tube and protein concentration was determined by BCA. Total protein (50 µg) was aliquoted into tubes in a final volume of 20 µl lysis buffer. Where indicated, JPM-OEt or MDV-590 were added from a 100x DMSO stock and incubated at 37° C. or 20 minutes prior to probe addition. The indicated concentration of probe was added from a 100x DMSO stock. Labeling was carried out at 37° C. or 20 minutes (unless otherwise indicated), and the reactions were quenched by the addition of 5x sample buffer (200 mM Tris-Cl [pH 6.8], 8% SDS, 0.04% bromophenol blue, 5% b-mercaptoethanol, and 40% glycerol). Samples were then boiled for five minutes and proteins were resolved on a 15% SDS-PAGE gel. The gels were scanned on a Typhoon 5 flatbed laser scanner at 633/670 nm excitation/emission to detect sCy5 fluorescence.
robe-labeled lysate from above (in sample buffer) was divided into input or pulldown (~50 µg total protein each). The input sample was stored at -20° C. The pulldown sample was diluted in 500 µl IP buffer (PBS [pH 7.4],[…], 1 mM EDTA). Goat anti-cathepsin X antibody (10 µl) was added along with 40 µl slurry of pre-washed Protein A/G agarose beads. Samples were rotated overnight at 4° C. Beads were then washed four times with IP buffer followed by a final wash in 0.9% NaCl. Beads were then resuspended in 2x sample buffer and boiled. The pulldown supernatants, alongside the input samples, were analysed by fluorescent SDS-PAGE as above.
In Example 3, the sulfoxonium ylide probe sCy5-Val-SY was incubated with protein lysates prepared from RAW264.7 cells, an immortalized mouse macrophage line that contains high levels of active cysteine cathepsins (Verdoes et al., 2013). Cells were lysed in citrate buffer (pH 5.5) to provide optimal conditions for cathepsin activation, and the probe was added • at 1 µM for 20 minutes • at various concentrations (0 µM, 0.01 µM, 0.05 µM, 0.1 µM, 0.5 µM or 1 µM) for 20 minutes; or • at 1 µM for varying times (0, 1, 2, 5, 10, 20, and 30 minutes).
Then the lysates were resolved by SDS-PAGE and the gel scanned for sCy5 fluorescence using a flatbed laser scanner.
The labeling profile of sCy5-Val-SY was compared to that of BMV109, the pan-cathepsin probe, by repeating the above experiment using BMV109 as the probe added at 1 µM for 20 minutes.
In Example 6, a small library of sulfoxonium ylide probes with varying amino acids in the P1 position as prepared in accordance with Example 1 was tested in RAW264.7 lysates, and compared to BMV109. Each probe was added with increasing probe concentrations of 0.01 µM, 0.05 µM, 0.1 µM, 0.5 µM, 1 µM and 5 µM for 20 minutes).

cathepsin S = target: T2, cathepsin S (Mus musculus, UniProt O70370); experiment: Inhibition in live RAW264.7 cells, residual activity by sCy5-Val-SY labeling; type: cell-based; settings: 100 µM overnight pre-treatment, compared to controls
T2 construct: Live RAW264.7 cells were pre-treated with Boc-Val-SY (0, 10 or 100 µM) overnight; host or cells: RAW264.7

cathepsin X [2] = target: T1, cathepsin X; experiment: as above; type: cell-based; set-up: protein lysates prepared from RAW264.7 cells; host or cells: RAW264.7; settings: 100 µM overnight pre-treatment, compared to controls
Protocol: To test the ability of sulfoxonium ylide compounds to act as cathepsin inhibitors, an unlabeled, boc-protected version of Val-SY, i.e. tert-butyl (S)-(1-(dimethyl(oxo)-λ ^6-sulfanylidene)-4-methyl-2-oxopentan-3-yl)carbamate (SJM-724-24) was used. Live RAW264.7 cells were pre-treated with Boc-Val-SY (0, 10 or 100 µM) overnight. Residual cathepsin X activity was measured by incubating the live cells with sCy5-Val-SY for two hours. Cells were lysed and labeled proteins were detected by in-gel fluorescence.

cathepsin X [3] = target: T1, cathepsin X; experiment: Probe labeling of living RAW264.7 cells, in-gel fluorescence; type: cell-based; set-up: protein lysates prepared from RAW264.7 cells; host or cells: RAW264.7; settings: Example 8; 0.1-5 µM for 2 hours
Protocol: AW cells or MDA-MB-231 ^HM cells were plated in 12-well plates. Where indicated, MDV-590 or vehicle was added at 10 µM from a 10 mM DMSO stock for overnight incubation. When the cell density reached 80%, the indicated probes were added at the indicated concentrations from a 1000x DMSO stock and allowed to incubate for the indicated time. Media was then removed and replaced with PBS. The cells were then scraped and transferred to tubes, and lysis and SDS-PAGE analysis were carried out as above, except skipping the probe addition step. […]
In Example 8, sulfoxonium ylide probes as prepared in accordance with Example 1 were applied to live RAW264.7 cells for two hours, in order to examine the potency and permeability of the sulfoxonium ylide probe series in living cells, and the results compared to BMV109.
The sulfoxonium ylide probes (and BMV109) were each added with increasing probe concentrations of 0.1 µM, 0.5 µM, 1 µM and 5 µM for 2 hours. […]

cathepsin X [4] = target: T1, cathepsin X; experiment: Probe labeling of mouse splenic lysates (wildtype or cathepsin X-deficient), in-gel fluorescence; type: biochemical; settings: probe 1 µM for 20 minutes
Protocol: (§1) issues were harvested from healthy mice and snap frozen. At the time of analysis, lysis buffer was added at 10x volume:weight, and tissues were sonicated on ice. Cleared lysates were labeled with the indicated probe and analyzed as above.
In Example 4, the ability of sCy5-Val-SY to label cathepsin X in mouse splenic lysates (from wildtype mice or cathepsin X-deficient mice) was tested (probe addition at 1 µM for 20 minutes).

cathepsin X [5] = target: T1, cathepsin X; experiment: In vivo probe labeling in mice (intravenous), tissues analyzed by fluorescent SDS-PAGE; settings: intravenous 50 nmol, two hours of circulation
Protocol: For in vivo labeled tissues, mice were first injected intravenously via the tail vein with sCy5-Nle-SY, BMV109, or sCy5-Nle-AOMK (50 nmol in 100 µl 10% DMSO/PBS or vehicle control). Tissues were harvested and analyzed as above except without further probe addition.
In Example 10, the probe sCy5-Nle-SY, vehicle control/no probe (NP) or BMV109 were injected into mice intravenously. After two hours of circulation, tissues were harvested, lysed, and analyzed for probe labeling by fluorescent SDS-PAGE.
In Example 12, the AOMK probe sCy5-Nle-AOMK was tested in vivo and its labeling in tissues was analyzed. The probe was injected into mice intravenously. After two hours of circulation, tissues were harvested, lysed, and analyzed for probe labeling by fluorescent SDS-PAGE.

cathepsin X [6] = target: T1, cathepsin X; experiment: Probe labeling of kidney lysates, in-gel fluorescence; type: biochemical; settings: 0.1-5 µM for 20 minutes
Protocol: as §1
In Example 7, sulfoxonium ylide probes as prepared in accordance with Example 1 were tested in kidney lysates and the results compared to BMV109. The sulfoxonium ylide probes (and BMV109) were each added with increasing probe concentrations of 0.1 µM, 0.5 µM, 1 µM and 5 µM for 20 minutes.

cathepsin X [7] = target: cathepsin X (Homo sapiens, UniProt Q9UBR2); experiment: Probe labeling of live MDA-MB-231 HM cells, in-gel fluorescence; type: cell-based; set-up: cathepsin X in a human breast cancer line known to express very low levels of cathepsin S; host or cells: MDA-MB-231 HM; settings: 0.1-5 µM, overnight incubation
Protocol: AW cells or MDA-MB-231 ^HM cells were plated in 12-well plates. Where indicated, MDV-590 or vehicle was added at 10 µM from a 10 mM DMSO stock for overnight incubation. When the cell density reached 80%, the indicated probes were added at the indicated concentrations from a 1000x DMSO stock and allowed to incubate for the indicated time. Media was then removed and replaced with PBS. The cells were then scraped and transferred to tubes, and lysis and SDS-PAGE analysis were carried out as above, except skipping the probe addition step.
In Example 9, the specificity of the sulfoxonium ylide probes for cathepsin X in a human breast cancer line known to express very low levels of cathepsin S, MDA-MB-231 ^HM (Chang et al., 2007) was tested, and the results compared to BMV109. The MDA-MB-231 ^HM cells also allowed to test whether the sulfoxonium ylide probes could bind to human cathepsin X (in addition to mouse cathepsin X shown previously).
The sulfoxonium ylide probes (and BMV109) were each added with increasing probe concentrations of 0.1 µM, 0.5 µM, 1 µM and 5 µM).

[8] = Example 6, 0.01-5 µM for 20 minutes

T1 sequence (Q9WUU7 64-306): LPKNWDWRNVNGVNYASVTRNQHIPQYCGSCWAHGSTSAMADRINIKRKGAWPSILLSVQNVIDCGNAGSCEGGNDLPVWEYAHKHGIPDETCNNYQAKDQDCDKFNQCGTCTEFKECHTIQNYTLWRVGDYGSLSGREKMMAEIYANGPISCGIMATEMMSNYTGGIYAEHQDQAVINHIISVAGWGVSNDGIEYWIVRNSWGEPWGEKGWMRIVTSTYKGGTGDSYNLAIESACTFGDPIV
cathepsin X (Homo sapiens, UniProt Q9UBR2), sequence (Q9UBR2 62-303): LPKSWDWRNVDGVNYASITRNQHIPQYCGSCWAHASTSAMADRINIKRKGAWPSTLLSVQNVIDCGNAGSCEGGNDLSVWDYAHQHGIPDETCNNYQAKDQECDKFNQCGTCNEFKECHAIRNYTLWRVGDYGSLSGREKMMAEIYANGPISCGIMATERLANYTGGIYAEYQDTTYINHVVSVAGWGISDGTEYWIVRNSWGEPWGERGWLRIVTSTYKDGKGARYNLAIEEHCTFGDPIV

## JPM-OEt [reference compound]
Cathepsin X [1]; RAW264.7 lysates pretreated with 10 µM inhibitor, then sCy5-Val-SY 1 µM 20 minutes
  competition for sCy5-Val-SY labeling by inhibitor pretreatment: labeling was prevented

## CC(C)[C@H](NC(=O)OC(C)(C)C)C(=O)C=S(C)(C)=O [Boc-Val-SY, tert-butyl (S)-(1-(dimethyl(oxo)-λ^6-sulfanylidene)-4-methyl-2-oxopentan-3-yl)carbamate]
Cathepsin S
  reduction in cathepsin S: 51%
Cathepsin X [2]
  reduction in cathepsin X: 71%

## CC[N+]1=C(/C=C/C=C/C=C2/N(CCCCCC(=O)N[C@@H](Cc3c[nH]c4ccccc34)C(=O)C=S(C)(C)=O)c3ccc(S(=O)(=O)O)cc3C2(C)C)C(C)(C)c2cc(S(=O)(=O)[O-])ccc21 [sCy5-Trp-SY]
Cathepsin X [3]
  cathepsins labeled in live RAW264.7 cells: labeled cathepsin X and S to similar extents and with similar potency

## CC[N+]1=C(/C=C/C=C/C=C2\N(CCCCCC(=O)NCCCC[C@H](NC(=O)[C@H](Cc3ccccc3)NC(=O)OCc3ccccc3)C(=O)COc3c(F)c(F)c(C(=O)NCCNC(=O)C4CCN(S(=O)(=O)c5ccccc5-c5c6ccc(N7CCc8cc(S(=O)(=O)[O-])ccc87)cc6[o+]c6cc(N7CCc8cc(S(=O)(=O)O)ccc87)ccc56)CC4)c(F)c3F)c3ccc(S(=O)(=O)O)cc3C2(C)C)C(C)(C)c2cc(S(=O)(=O)[O-])ccc21 [BMV109, reference compound]
Cathepsin X [4]
  labeling in splenic lysates from wildtype mice: strongly labeled cathepsin B and to a lesser extent, cathepsin S and L
Cathepsin X [5]
  labeling of cathepsin S, B and L in tissues after in vivo administration: strongly labels cathepsin B and L

## CC[N+]1=C(/C=C/C=C/C=C2/N(CCCCCC(=O)N[C@@H](Cc3ccccc3)C(=O)C=S(C)(C)=O)c3ccc(S(=O)(=O)O)cc3C2(C)C)C(C)(C)c2cc(S(=O)(=O)[O-])ccc21 [sCy5-Phe-SY]
Cathepsin X [6]
  potency and specificity of labeling in kidney lysates: broader reactivity
Cathepsin X [3]
  cathepsins labeled in live RAW264.7 cells: labeled cathepsin X and S to similar extents and with similar potency

## CC[N+]1=C(/C=C/C=C/C=C2/N(CCCCCC(=O)N[C@@H](CC(C)C)C(=O)C=S(C)(C)=O)c3ccc(S(=O)(=O)O)cc3C2(C)C)C(C)(C)c2cc(S(=O)(=O)[O-])ccc21 [sCy5-Leu-SY]
Cathepsin X [6]
  potency and specificity of labeling in kidney lysates: the most potency and specificity for cathepsin X
Cathepsin X [3]
  cathepsins labeled in live RAW264.7 cells: labeled cathepsin X and S to similar extents and with similar potency

## CC[N+]1=C(/C=C/C=C/C=C2/N(CCCCCC(=O)NCCCC[C@H](NC(=O)OCc3ccccc3)C(=O)C=S(C)(C)=O)c3ccc(S(=O)(=O)O)cc3C2(C)C)C(C)(C)c2cc(S(=O)(=O)[O-])ccc21 [Cbz-Lys(sCy5)-SY]
Cathepsin X [6]
  potency and specificity of labeling in kidney lysates: broader reactivity
Cathepsin X [1]; [8]
  specificity of labeling in RAW264.7 lysates: loss of specificity, favoring cathepsin S over X and B
Cathepsin X [3]
  cathepsins labeled in live RAW264.7 cells: preference for cathepsin S
Cathepsin X [7]
  cross-reactivity with cathepsin B and L in live MDA-MB-231 HM cells: the most cross-reactivity with cathepsin B and L

## CCCC[C@H](NC(=O)CCCCN1/C(=C/C=C/C=C/C2=[N+](CC)c3ccc(S(=O)(=O)[O-])cc3C2(C)C)C(C)(C)c2cc(S(=O)(=O)O)ccc21)C(=O)COC(=O)c1c(C)cccc1C [sCy5-Nle-AOMK]
Cathepsin X [5]
  labeling of cathepsin S, B and L in tissues after in vivo administration: Only weak labeling of cathepsin B and S was observed in the colon, but not in other tissues examined

## CC[N+]1=C(/C=C/C=C/C=C2/N(CCCCCC(=O)N[C@@H](Cc3ccccc3)C(=O)N[C@H](C(=O)C=S(C)(C)=O)C(C)C)c3ccc(S(=O)(=O)O)cc3C2(C)C)C(C)(C)c2cc(S(=O)(=O)[O-])ccc21 [sCy5-Phe-Val-SY]
Cathepsin X [6]
  potency and specificity of labeling in kidney lysates: broader reactivity
Cathepsin X [1]; [8]
  potency of labeling in RAW264.7 lysates: improved potencies for cathepsin X and S compared to BMV109
  specificity of labeling in RAW264.7 lysates: loss of specificity
Cathepsin X [3]
  cathepsins labeled in live RAW264.7 cells: labeled cathepsin B and L in addition to cathepsin X and S
Cathepsin X [7]
  cross-reactivity with cathepsin B and L in live MDA-MB-231 HM cells: the most cross-reactivity with cathepsin B and L

— patent US20230285598A1, “SULFOXONIUM YLIDE DERIVATIVES AS PROBES FOR CYSTEINE PROTEASE” (Takeda Pharmaceutical Company Limited, priority 2018, published 2023)
